A short description of series [1]: compatibility investigation of binary mixtures with vitamin B12 by DSC. More on the design: key: ++: good compatibility expected below the stated temperature; +: compatibility below the stated temperature; ++/−: indifferent compatibility, possibly good compatibility below the stated temperature; +/−−: indifferent compatibility, appears to be compatible below the stated temperature; −: (strong) interaction, incompatible; −−−: (strong) interaction, incompatible. In kind it is physicochemical. The settings on record: binary mixture with vitamin B12, DSC, various gases and temperatures. Here is the method: Both vitamin B12 and 5-methyl-(6S)-tetrahydrofolate are unstable in the presence of atmospheric oxygen and humidity. […] Measurements of the incompatibilities between the intended formulation ingredients were carried out by a thermoanalytical method (DSC, differential scanning calorimetry). This allows incompatibilities to be recognized through low enthalpies of fusion and melting temperatures. These are caused for example by a reduced proportion of crystalline substance and the increase in impurities. In the determination, binary mixtures of excipients or active ingredients in each case with vitamin B12 were investigated, and the compatibility was examined under the influence of various gases and temperatures. […]

For series [2] the following is noted: cited from earlier work.

With `C[C@]12CCC(=O)C=C1[C@@H]1C[C@@H]1[C@H]1[C@@H]3[C@@H]4C[C@@H]4[C@@]4(CCC(=O)O4)[C@@]3(C)CC[C@@H]12` [Drospirenone], in series [1], the Compatibility entry is “+”. Take `OC[C@H]1O[C@@H](O[C@H]2[C@H](O)[C@@H](O)C(O)O[C@@H]2CO)[C@H](O)[C@@H](O)[C@H]1O` (some centres unmarked) [Lactose]: in series [1], the Compatibility result is on record as “+”. `Nc1nc2ncc(CNc3ccc(C(=O)N[C@@H](CCC(=O)O)C(=O)O)cc3)nc2c(=O)[nH]1` [folic acid]: the “reduction of incidence of neural tube defects” value in series [2] (folic acid fortification of food products, Canada and Chile) was “more than 50%”. For the same compound, in series [2] (intake at the right time around conception), the “reduction of neural tube defects” value was 50-70%.

With Magnesium stearate, in series [1], the Compatibility entry is on record as “++/−”.

Values taken from US10463666B2, “Pharmaceutical composition comprising progestogens and/or estrogens and 5-methyl-(6S)-tetrahydrofolate” (MERCK & CIE, priority 2005, dated 2019).
